Results reported in patent publication US6737383B1, “Herbicidal oxadiazolidines” (priority 1999, dated 2004).

Columns and labels:
tall mallow = assay: Test D tall mallow; type: in vivo, Malva sylvestris; conditions: Preemergence, 0 to 100 scale
Description: (§1) Seeds, tubers, or plant parts of Alexandergrass (Brachiaria plantaginea), bermuda-grass (Cynodon dactylon), common pursiane (Portulaca oleracea), common ragweed (Ambrosia elatior), common groundsel (Senecio vulgaris), dallisgrass (Paspalum dilatatum), goosegrass (Eleusine indica), guineagrass (Panicum maximum), itchgrass (Rottboellia exaltata), Johnson grass (Sorghum halepense), large crabgrass (Digitaria sanguinalis), pitted morningglory (Ipomoea lacunosa), purple nutsedge (Cyperus rotundus), sandbur (Cenchrus echinatus), sourgrass (Trichachne insularis), Spanishneedles (Bidens bipinnata), surinam grass (Brachiaria decumbens) and tall mallow (Malva sylvestris) were planted into greenhouse pots of flats containing greenhouse planting medium. Plant species were grown in separate pots or individual compartments. Preemergence applications were made within one day of planting the seed or plant part.
(§2) Test chemicals were formulated in a non-phytotoxic solvent mixture which included a surfactant and applied preemergence to the surface of the pot containing seeds in a sandy loam soil. Untreated control pots and treated pots were placed in the greenhouse for growth and visually evaluated for injury 14 to 21 days after herbicide application. Plant response ratings, summarized in Table C, are based on a 0 to 100 scale where 0 is no injury and 100 is complete control. A dash (−) response means no test result.

sandbur = assay: Test D sandbur; type: in vivo, Cenchrus echinatus; conditions: Preemergence, 0 to 100 scale
Description: as §1, §2

common groundsel = assay: Test D common groundsel; type: in vivo, Senecio vulgaris; conditions: Preemergence, 0 to 100 scale
Description: as §1, §2

large crabgrass = assay: Test D large crabgrass; type: in vivo, Digitaria sanguinalis; conditions: Preemergence, 0 to 100 scale
Outline: (§3)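 Seeds were sown in greenhouse pots, one species per pot or compartment. Compounds were in a non-phytotoxic solvent mixture with surfactant; preemergence applications went on the sandy loam surface within one day of planting. Injury was rated visually after 14 to 21 days, 0 (none) to 100 (complete control).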

bermuda-grass = assay: Test D bermudagrass; type: in vivo, Cynodon dactylon; conditions: Preemergence, 0 to 100 scale
Description: as §1, §2

common pursiane = assay: Test D common purslane; type: in vivo, Portulaca oleracea; conditions: Preemergence, 0 to 100 scale
Description: as §1, §2

goosegrass = assay: Test D goosegrass; type: in vivo, Eleusine indica; conditions: Preemergence, 0 to 100 scale
Outline: as §3

itchgrass = assay: Test D itchgrass; type: in vivo, Rottboellia exaltata; conditions: Preemergence, 0 to 100 scale
Description: as §1, §2

pitted morningglory = assay: Test D pitted morningglory; type: in vivo, Ipomoea lacunosa; conditions: Preemergence, 0 to 100 scale
Outline: as §3

Green foxtail [1] = assay: Test D green foxtail; type: in vivo; conditions: Preemergence, 0 to 100 scale
Description: as §1, §2

Green foxtail [2] = assay: Test D green foxtail; type: in vivo
Outline: as §3

guineagrass = assay: Test D guineagrass; type: in vivo, Panicum maximum; conditions: Preemergence, 0 to 100 scale
Outline: as §3

dallisgrass = assay: Test D dallisgrass; type: in vivo, Paspalum dilatatum; conditions: Preemergence, 0 to 100 scale
Description: as §1, §2

Spanishneedles = assay: Test D Spanishneedles; type: in vivo, Bidens bipinnata; conditions: Preemergence, 0 to 100 scale
Outline: as §3

surinam grass = assay: Test D surinam grass; type: in vivo, Brachiaria decumbens
Outline: as §3

common ragweed = assay: Test D common ragweed; type: in vivo, Ambrosia elatior; conditions: Preemergence, 0 to 100 scale
Description: as §1, §2

[3] = Rate 16 g/ha, 0 no injury, 100 complete control
[4] = Rate 32 g/ha, 0 no injury, 100 complete control
[5] = Rate 64 g/ha, 0 no injury, 100 complete control
[6] = Rate 125 g/ha, 0 no injury, 100 complete control
[7] = Rate 16 g/ha; Preemergence; 0 to 100 scale, 0 no injury, 100 complete control
[8] = Rate 32 g/ha; Preemergence; 0 to 100 scale, 0 no injury, 100 complete control
[9] = Rate 64 g/ha, Preemergence; 0 to 100 scale, 0 no injury, 100 complete control
[10] = Rate 125 g/ha, Preemergence; 0 to 100 scale, 0 no injury, 100 complete control
[11] = Rate 250 g/ha; Preemergence; 0 to 100 scale
[12] = Rate 500 g/ha, Preemergence; 0 to 100 scale

Structure (SMILES): CC(C)N(C(=O)n1oc(=O)n(Cc2ccccc2)c1=O)c1ccc(F)cc1 [Compound 78]
- Plant response rating, Tall Mallow (tall mallow; [3]): 0
- Plant response rating, Tall Mallow (tall mallow; [4]): 0
- Tall Mallow plant response rating (tall mallow; [5]): 0
- Tall Mallow plant response rating (tall mallow; [6]): 0
- Plant response rating, Tall Mallow (tall mallow; Rate 250 g/ha): 0
- Plant response rating, Tall Mallow (tall mallow; Rate 500 g/ha): 0
- Plant response rating, Sandbur (sandbur; [3]): 0
- Plant response rating, Sandbur (sandbur; [4]): 0
- Sandbur plant response rating (sandbur; [5]): 0
- Sandbur plant response rating (sandbur; [6]): 0
- Plant response rating, Sandbur (sandbur; Rate 250 g/ha): 75
- Plant response rating, Sandbur (sandbur; Rate 500 g/ha): 80
- Plant response rating, Com. groundsel (common groundsel; [3]): 0
- Plant response rating, Com. groundsel (common groundsel; [4]): 0
- Plant response rating, Com. groundsel (common groundsel; [5]): 0
- Plant response rating, Com. groundsel (common groundsel; [6]): 0
- Plant response rating, Com. groundsel (common groundsel; Rate 250 g/ha): 0
- Plant response rating, Com. groundsel (common groundsel; Rate 500 g/ha): 0
- Plant response rating, Large crabgrass (large crabgrass; [3]): 0
- Plant response rating, Large crabgrass (large crabgrass; [4]): 40
- Plant response rating, Large crabgrass (large crabgrass; [5]): 98
- Plant response rating, Large crabgrass (large crabgrass; [6]): 100
- Plant response rating, Large crabgrass (large crabgrass; Rate 250 g/ha): 100
- Plant response rating, Large crabgrass (large crabgrass; Rate 500 g/ha): 100
- Plant response rating, Bermudagrass (bermuda-grass; [3]): 75
- Plant response rating, Bermudagrass (bermuda-grass; [4]): 85
- Plant response rating, Bermudagrass (bermuda-grass; [5]): 90
- Plant response rating, Bermudagrass (bermuda-grass; [6]): 98
- Plant response rating, Bermudagrass (bermuda-grass; Rate 250 g/ha): 100
- Plant response rating, Bermudagrass (bermuda-grass; Rate 500 g/ha): 100
- Plant response rating, C. purslane (common pursiane; [3]): 0
- Plant response rating, C. purslane (common pursiane; [4]): 0
- Plant response rating, C. purslane (common pursiane; [5]): 0
- Plant response rating, C. purslane (common pursiane; [6]): 0
- Plant response rating, C. purslane (common pursiane; Rate 250 g/ha): 0
- Plant response rating, C. purslane (common pursiane; Rate 500 g/ha): 0
- Plant response rating, Goosegrass (goosegrass; [3]): 10
- Plant response rating, Goosegrass (goosegrass; [4]): 10
- Plant response rating, Goosegrass (goosegrass; [5]): 85
- Plant response rating, Goosegrass (goosegrass; [6]): 98
- Plant response rating, Goosegrass (goosegrass; Rate 250 g/ha): 98
- Plant response rating, Goosegrass (goosegrass; Rate 500 g/ha): 100
- Plant response rating, Itchgrass (itchgrass; [3]): 0
- Plant response rating, Itchgrass (itchgrass; [4]): 0
- Plant response rating, Itchgrass (itchgrass; [5]): 0
- Plant response rating, Itchgrass (itchgrass; [6]): 0
- Plant response rating, Itchgrass (itchgrass; Rate 250 g/ha): 10
- Plant response rating, Itchgrass (itchgrass; Rate 500 g/ha): 20
- Plant response rating, P. morninglory (pitted morningglory; [3]): 0
- Plant response rating, P. morninglory (pitted morningglory; [4]): 0
- Plant response rating, P. morninglory (pitted morningglory; [5]): 0
- Plant response rating, P. morninglory (pitted morningglory; [6]): 0
- Plant response rating, P. morninglory (pitted morningglory; Rate 250 g/ha): 0
- Plant response rating, P. morninglory (pitted morningglory; Rate 500 g/ha): 0
- Plant response rating, Green foxtail (Green foxtail [1]; Rate 250 g/ha): 100
- Plant response rating, Green foxtail (Green foxtail [1]; Rate 500 g/ha): 100
- Plant response rating, Green foxtail (Green foxtail [2]; Preemergence; Rate 16 g/ha; 0 to 100 scale, 0 no injury, 100 complete control): 0
- Plant response rating, Green foxtail (Green foxtail [2]; Preemergence; Rate 32 g/ha; 0 to 100 scale, 0 no injury, 100 complete control): 75
- Plant response rating, Green foxtail (Green foxtail [2]; [7]): 0
- Plant response rating, Green foxtail (Green foxtail [2]; [8]): 75
- Green foxtail plant response rating (Green foxtail [2]; [9]): 85
- Plant response rating, Green foxtail (Green foxtail [2]; [9]): 85
- Green foxtail plant response rating (Green foxtail [2]; [10]): 100
- Plant response rating, Green foxtail (Green foxtail [2]; [10]): 100
- Plant response rating, Green foxtail (Green foxtail [2]; [11]): 100
- Plant response rating, Green foxtail (Green foxtail [2]; [12]): 100
- Plant response rating, Guineagrass (guineagrass; [3]): 20
- Plant response rating, Guineagrass (guineagrass; [4]): 20
- Plant response rating, Guineagrass (guineagrass; [5]): 65
- Plant response rating, Guineagrass (guineagrass; [6]): 85
- Plant response rating, Guineagrass (guineagrass; Rate 250 g/ha): 100
- Plant response rating, Guineagrass (guineagrass; Rate 500 g/ha): 100
- Plant response rating, Dallisgrass (dallisgrass; [3]): 0
- Plant response rating, Dallisgrass (dallisgrass; [4]): 0
- Plant response rating, Dallisgrass (dallisgrass; [5]): 75
- Plant response rating, Dallisgrass (dallisgrass; [6]): 100
- Plant response rating, Dallisgrass (dallisgrass; Rate 250 g/ha): 100
- Plant response rating, Dallisgrass (dallisgrass; Rate 500 g/ha): 100
- Plant response rating, Spanishneedles (Spanishneedles; [3]): 0
- Plant response rating, Spanishneedles (Spanishneedles; [4]): 0
- Spanishneedles plant response rating (Spanishneedles; [5]): 0
- Spanishneedles plant response rating (Spanishneedles; [6]): 0
- Plant response rating, Spanishneedles (Spanishneedles; Rate 500 g/ha): 0
- Plant response rating, Surinam grass (surinam grass; [7]): 0
- Plant response rating, Surinam grass (surinam grass; [8]): 0
- Surinam grass plant response rating (surinam grass; [9]): 20
- Surinam grass plant response rating (surinam grass; [10]): 30
- Plant response rating, Surinam grass (surinam grass; [11]): 85
- Plant response rating, Surinam grass (surinam grass; [12]): 96
- Plant response rating, Surinam grass (surinam grass; Rate 500 g/ha; Preemergence; 0 to 100 scale): 98
- Plant response rating, C. ragweed (common ragweed; [3]): 0
- Plant response rating, C. ragweed (common ragweed; [4]): 0
- Plant response rating, C. ragweed (common ragweed; [5]): 0
- Plant response rating, C. ragweed (common ragweed; [6]): 0
- Plant response rating, C. ragweed (common ragweed; Rate 250 g/ha): 0
- Plant response rating, C. ragweed (common ragweed; Rate 500 g/ha): 0
